The structures appear in SMILES notation. Like-named read-outs stand apart in the source and are kept apart here.

Data set [1] is described as follows: Solubility in water of calcium salts. Type of data set: physicochemical. An excerpt:
The solubility in water of the calcium lactobionate thus obtained was compared with those of other calcium salts (manufactured by Wako Pure Chemical Industries).

The test system of data set [2] is laying hens. In kind it is in vivo. The note with it: feed without calcium carbonate and di-lime phosphate; hens aged 470 days, fed 60 days. The procedure:
(§1) Ten laying hens aged 470 days (laying white leghorn hens (Julia)) were fed with each of the feeds prepared in Examples 2 to 5 for 60 days and the egg-laying rate, the egg breakage and egg cracking rate and eggshell strength were measured. The egg-laying rate was determined in accordance with the following Equation 1, while the egg breakage and egg cracking rate were determined in accordance with the following Equation 2. Eggshell strength was determined by horizontally placing an egg and measuring the bursting strength with a rheometer. A feed containing no feed additive for laying hens was also prepared as a control. […] Egg-laying rate=(total number of eggs in each test lot/total number of eggs in control lot)×100 [Equation 1] Egg breakage/cracking rate=(number of broken or cracked eggs/total number of eggs yield)×100 [Equation 2]
Ten laying hens aged 470 days (laying white leghorn hens (Julia)) were fed with each of the feeds prepared in Examples 10 and 11 for 60 days and the egg-laying rate, the egg breakage and egg cracking rate and eggshell strength were measured in the same manner as in Examples 2 to 5. […]

For data set [3], the system named is laying hens. As to the kind of experiment: Test Example 4: feeding of feeds of Examples 12 to 14 to laying hens aged 500 days for 60 days. Type of data set: in vivo. The following applies: Boris Brown hens aged 500 days, fed 60 days. The procedure:
as §1
Four laying hens aged 500 days (Boris Brown) were fed with each of the feeds prepared in Examples 12 to 14 for 60 days and the egg-laying rate and the eggshell strength were measured in the same manner as in Examples 2 to 5. […]

With `O=C([O-])[C@H](O)[C@@H](O)[C@H](O)[C@H](O)CO.O=C([O-])[C@H](O)[C@@H](O)[C@H](O)[C@H](O)CO.[Ca+2]` [Ca gluconate, reference compound], the Solubilities in water in data set [1] (water) amounted to 3.8 g/100 mL.

Take `O=C([O-])[C@H](O)[C@@H](O)[C@H](O[C@@H]1O[C@H](CO)[C@H](O)[C@H](O)[C@H]1O)[C@H](O)CO.O=C([O-])[C@H](O)[C@@H](O)[C@H](O[C@@H]1O[C@H](CO)[C@H](O)[C@H](O)[C@H]1O)[C@H](O)CO.[Ca+2]` [Ca lactobionate, calcium lactobionate]: the values for the Eggshell strength entry in the data set with laying hens [2] and in the data set on laying hens [3] were “showed an effect of reinforcing eggshells” and “eggshell reinforcing effect could be obtained”, respectively. Besides, the Solubilities in water in data set [1] is on record as more than 40 g/100 mL.

(Values after patent publication US8808728B2, “Feed additive for laying hen and feed containing the same” (Unitika Ltd., priority 2004, dated 2014).)
